Key:
[1] = 2:1 (v/v) dioxane:water mixture; cited from earlier work
[2] = Dissolution of the powder in aqueous solution (equivalent of 4 g/l piroxicam, sample after 15 min, HPLC); format: physicochemical; conditions: equivalent of 4 g/l of piroxicam in aqueous solution at 37° C.

CN1C(C(=O)Nc2ccccn2)=C(O)c2ccccc2S1(=O)=O [piroxicam]
pKa value of the enol functional group [1]: ~2 | Dissolution of the piroxicam (g/l) [2]: less than 0.2 g/l | Dissolution of the piroxicam ([2]; listed as Piroxicam): <0.2 g/L
